“And” between values parts separate entries of the source, which are not always exact repeats. Equal values may be shown once. “Also recorded” adds a separate entry of the source. Read-outs that look alike come from different tables or passages of the source. Values belong to the compound of their own block, whether it stands above or below them.
Assays:
[1] = target: T1, recombinant human htau40 (Homo sapiens, UniProt P10636); assay: Thioflavin S fluorescence assay of arachidonic acid-induced tau polymerization; assay type: biochemical
T1 construct: synthetic straight filaments prepared from recombinant full-length tau; made in house
Experimental: (§1) Tau Polymerization. Purified isoforms of tau were polymerized as described previously (Wilson et al., Am. J. Pathol. 150: 2181 (1997); King et al., Biochemistry 38: 14851 (1999); King et al., J. Neurochem. 74: 1749 (2000)). Briefly, 2-8 mM (final concentration) htau40 or mutant htau40^C291A, C322A was incubated at room temperature in the presence or absence of 2-[[4-(dimethylamino)phenyl]azo]-6-methoxylbenzothiazole (compound I′) with polymerization buffer (10 mM 4-[2-hydroxyethyl]-1-piperazineethanesulfonic acid, 100 mM NaCl, and 5 mM DTT) containing 4 mM thioflavin S. Polymerization was induced by the addition of arachidonic acid (75-100 mM) and continued until analyzed by fluorescence or electron microscopy assays described below. When present, compound I′ final concentration varied from 0.05-2 mM. Control reactions were normalized for DMSO vehicle, which was limited to 5% in all reactions.
(§2) Fluorescence. Tau aggregation and disassembly were monitored by following thioflavin S fluorescence as described previously (King et al., 1999). Inhibitory activity of compound I′ was quantified by fitting the resultant data to the relationship
A=A0+(Amax−A0)/[1+10^(log IC50−logX)]
where A and A0 are blank-adjusted fluorescence in the presence and absence of inhibitor (at concentration X), respectively. IC50 values were calculated using the nonlinear regression algorithm of GRAPHPAD PRISM (GraphPad Software Inc.).
Inhibition of tau Polymerization. […] 31, 2000. 2-[[4-(Dimethylamino)phenyl]azo]-6-methoxylbenzothiazole (compound I′), an uncharged (at physiological pH) member of the azo dye family that includes Congo Red, was identified as having inhibitory activity against htau40.
The effect of compound I′ on polymerization of htau40 (2 mM) was quantified using a thioflavin S (2-4 mM) fluorescence assay (King et al., 1999).

[2] = target: Ab fibrils (Homo sapiens, UniProt P05067); conditions: cited from earlier work
[3] = target: T2, htau40^C291A, C322A (Homo sapiens, UniProt P10636, C608A/C639A); assay: Electron microscopy assay of tau filament formation; assay type: biochemical; conditions: 200 nM compound (1:40 molar ratio relative to tau), 8 µM htau40^C291A
T2 construct: synthetic straight filaments prepared from recombinant full-length tau; made in house
Experimental: as §1, with “Control reactions were normalized for DMSO vehicle, which was limited to 5% in all reactions.” left out
Transmission Electron Microscopy. […] Four to six random images from each experimental condition were captured on film at either 13,000× or 22,000× magnification, digitized, calibrated, and imported into Optimas 6.5.1 for quantitation of filament length and number as described previously (King et al., 2000). Individual filaments defined as any object greater than 50 nm in its long axis were counted manually. […] Length distributions were quantified in 100 nm-wide bins, beginning with 50-150 nm lengths and continuing 151-250 nm, 251-350 nm, etc. […]

[4] = test system: Tau filaments isolated from AD brain; assay: Disassembly of authentic tau filaments, electron microscopy; assay type: biochemical, human; conditions: 2 mM compound; 20 min incubation; filaments 0.03 mg/ml
Experimental: The ability of compound I′ (2 mM) to depolymerize authentic filaments (0.033 mg/ml) was assayed as above except that timepoints were limited to 0, 10, and 20 min post addition.
Transmission Electron Microscopy. Aliquots (50 ml) of polymerization and depolymerization reactions were removed, fixed with glutaraldehyde (2%), and adsorbed (1 min) onto 300 mesh formvar/carbon-coated copper grids (Electron Microscopy Sciences; Ft. Washington, Pa.). The resultant grids were washed with water, stained (1 min) with 2% uranyl acetate (Electron Microscopy Sciences), washed again with water, blotted dry, and viewed in a Phillips CM 12 microscope operated at 65 kV. Four to six random images from each experimental condition were captured on film at either 13,000× or 22,000× magnification, digitized, calibrated, and imported into Optimas 6.5.1 for quantitation of filament length and number as described previously (King et al., 2000). Individual filaments defined as any object greater than 50 nm in its long axis were counted manually. Counts from each of the 4 to 6 random images per condition are reported as an average±standard deviation for both filament length and number. Length distributions were quantified in 100 nm-wide bins, beginning with 50-150 nm lengths and continuing 151-250 nm, 251-350 nm, etc.
Authentic PHF Disassembly. […]

[5] = target: T3, Aβ1-40 (Homo sapiens, UniProt P05067); assay: Aβ1-40 aggregation, turbidity at 350 nm; assay type: biochemical; conditions: 20 μM (20 mM in the source) compound, stoichiometric with Aβ
T3 construct: Stock solutions of Aβ1-40 (Bachem; Philadelphia, Pa.) were prepared in DMSO; purchased Bachem
Experimental: Aβ1-40 Aggregation. Stock solutions of Aβ (1 mM) were prepared in DMSO and filtered (0.2 mM cutoff). Aggregation was initiated by diluting the Aβb stock solution to 20 mM final concentration in aggregation buffer (150 mM NaCl, 10 mM 2-[N-morpholino]ethanesulfonic acid, pH 6.2; final volume 100 mL). Turbidity resulting from Aβ aggregation in the presence (20 mM final concentration) and absence of compound I′ was monitored as a function of time in a Beckman DU640B spectrophotometer at 350 nm versus a DMSO vehicle blank (Snyder et al., Biophys. J. 67: 1216 (1994); Evans et al., Proc. Natl. Acad. Sci. USA 92: 763 (1995)). Cuvettes were rapidly inverted before each reading.
Selectivity of tau Polymerization Antagonism. […] To determine whether amyloid binding was accompanied by polymerization inhibitory activity, the ability of compound I′ to inhibit spontaneous Aβ1-40 assembly was examined. In the absence of ligand, Aβ1-40 (20 mM) polymerized spontaneously after a lag of 1 hour (FIG. 6).

[6] = Charge state at physiological pH; assay type: physicochemical
[7] = target: T4, htau40^C291A, C322A filaments (Homo sapiens, UniProt P10636, C608A/C639A); assay: Inhibitor-mediated depolymerization of preassembled synthetic tau filaments, electron microscopy time course; assay type: biochemical
T4 construct: synthetic straight filaments prepared from recombinant full-length tau; made in house
Experimental: (§3) Tau Depolymerization. Solutions of purified htau40 or htau40^C291A, C322A (8 mM) were polymerized as described above for 3.5 hours. To assay dilution-mediated depolymerization, aliquots (50 ml) of reaction product were injected into a stirred quartz cuvette containing 1 ml of polymerization buffer with 4 mM thioflavin S and fluorescence decay followed as a function of time (room temperature). When present, arachidonic acid was 50 mM and tau was held at 2 mM.
(§4) To assay inhibitor-mediated depolymerization, compound I′ was added to polymerized tau to a final concentration of 0.2 mM into two separate microcentrifuge tubes. Aliquots were removed from each sample after 10, 20, 30, 45, 60 minutes incubation and subjected to fluorescence or electron microscopy assays described below. Control (no compound I′) reactions were normalized for DMSO vehicle, which was limited to 5% in all reactions.
Transmission Electron Microscopy. Aliquots (50 ml) of polymerization and depolymerization reactions were removed, fixed with glutaraldehyde (2%), and adsorbed (1 min) onto 300 mesh formvar/carbon-coated copper grids (Electron Microscopy Sciences; Ft. Washington, Pa.). […] Four to six random images from each experimental condition were captured on film at either 13,000× or 22,000× magnification, digitized, calibrated, and imported into Optimas 6.5.1 for quantitation of filament length and number as described previously (King et al., 2000). Individual filaments defined as any object greater than 50 nm in its long axis were counted manually. […] Length distributions were quantified in 100 nm-wide bins, beginning with 50-150 nm lengths and continuing 151-250 nm, 251-350 nm, etc.
To determine whether compound I′-mediated tau depolymerization proceeded by an endwise mechanism, htau40^C291A, C322A (4 mM) was polymerized over a 3.5 hour period after which time compound I′ (200 nM) or DMSO vehicle alone was added and filament lengths were measured over a 1 hour “chase” by electron microscopy. […]

[8] = target: T5, synthetic tau filaments (htau40) (Homo sapiens, UniProt P10636); assay: Disassembly of preassembled synthetic tau filaments, dose response; assay type: biochemical; conditions: filaments assembled 3 hours; read-out: IC50, dose response on preassembled tau filaments (data not shown)
T5 construct: synthetic straight filaments prepared from recombinant full-length tau; made in house
Experimental: as §3
as §4, with “Control (no compound I′) reactions were normalized for DMSO vehicle, which was limited to 5% in all reactions.” left out
as §2
To determine whether compound I′ also could destabilize mature filaments and mimic the depolymerization observed in dilution experiments, tau filaments assembled in the presence of thioflavin S for 3 hours under standard conditions were incubated in the presence or absence of compound I′ (200 nM) and examined after various times by electron microscopy and fluorescence.

[9] = approximate values given in the description, read-out: IC50, arachidonic acid polymerization of full length tau protein
[10] = after 1 hour incubation with 200 nM compound

T1 sequence (P10636 1-441 isoform P10636-8): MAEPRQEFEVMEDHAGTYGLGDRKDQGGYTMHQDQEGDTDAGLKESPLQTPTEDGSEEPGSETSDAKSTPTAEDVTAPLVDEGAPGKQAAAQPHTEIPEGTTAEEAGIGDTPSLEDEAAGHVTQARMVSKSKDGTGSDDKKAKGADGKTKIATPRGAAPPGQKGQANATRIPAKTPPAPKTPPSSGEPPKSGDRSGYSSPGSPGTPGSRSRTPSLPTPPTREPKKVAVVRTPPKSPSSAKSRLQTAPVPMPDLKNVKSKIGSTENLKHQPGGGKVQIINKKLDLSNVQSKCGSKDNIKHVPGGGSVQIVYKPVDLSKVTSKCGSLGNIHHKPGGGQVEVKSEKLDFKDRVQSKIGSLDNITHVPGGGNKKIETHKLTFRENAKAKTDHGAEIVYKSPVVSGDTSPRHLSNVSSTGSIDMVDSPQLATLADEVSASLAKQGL
T3 sequence (P05067 672-711 limits assumed): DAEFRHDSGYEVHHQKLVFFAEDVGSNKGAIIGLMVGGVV
T4 sequence (P10636 1-441 isoform P10636-8 C291A/C322A): as the sequence (P10636 1-441 isoform P10636-8) above, with C291A, C322A counted along it
T2 sequence (P10636 1-441 isoform P10636-8 C291A/C322A): as the sequence (P10636 1-441 isoform P10636-8) above, with C291A, C322A counted along it
Ab fibrils, sequence (P05067 672-713 limits assumed): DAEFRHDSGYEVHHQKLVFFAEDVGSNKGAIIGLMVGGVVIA
T5 sequence (P10636 1-441 isoform P10636-8): as the sequence (P10636 1-441 isoform P10636-8) above

IC50 [1, 9]: ~60 nM
Compound: CCN(CCO)c1ccc(N=Nc2nc3ccc(OC)cc3s2)cc1 [2-[[4-(N-ethyl-N-β-hydroxyethylamino)phenyl]azo]-6-methoxybenzothiazole]

IC50 [1, 9]: ~60 nM
Compound: CCN(CC)c1ccc(N=Nc2nc3ccc(OC)cc3s2)cc1 [2-[[4-(didethylamino)phenyl]azo]-6-methoxybenzothiazole]

IC50 [1, 9]: ~40 nM
Compound: CCC(=Cc1sc2ccc(OC)cc2[n+]1CCO)C=C1Sc2ccc(OC)cc2N1CCO [3-(2-hydroxy-ethyl)-2-{2-[3-(2-hydroxyl-ethyl)-5-methoxy-3H-benzothiazol-2-ylidenemethyl]-but-1-enyl}-5-methoxy-benzothiazol-3-ium]

Compound: Cc1ccc(N=Nc2ccc(-c3ccc(N=Nc4ccc(C)c(C(=O)O)c4O)cc3)cc2)c(O)c1C(=O)O [3-[4′-(3-carboxy-2-hydroxy4-methyl-cyclohexa-1,5-dienylazo)-biphenyl-4-ylazo]-2-hydroxy-6-methyl benzoic acid]
IC50 [1, 9]: ~400 nM

IC50 [1, 9]: ~700 nM
Compound: Cc1cc(N=Nc2c(O)ccc3ccccc23)c(CCCC(=O)O)s1 [4-[3-(2-hydroxy-naphthalen-1-ylazo)-5-methyl-thiophen-2-yl]-butyric acid]

IC50 [1, 9]: ~600 nM
Compound: O=C1Nc2ccccc2/C1=N/NC(=O)c1cc2ccccc2cc1O [Compound III, 3-hydroxy-napthalene-2-carboxylic acid (2-oxo-1,2-dihydro-indol-3-ylidene)-hydrazide]

Compound: Nc1ccc(-c2nc3ccc(-c4nc5ccc(N)cc5[nH]4)cc3[nH]2)cc1 [Ro 90-7501]
effect on Ab fibrils [2]: inhibit polymerization and promote disaggregation

IC50 [1, 9]: ~60 nM
Compound: COc1ccc2nc(N=Nc3ccc(N(C)c4ccccc4)cc3)sc2c1 [[4-(6-methoxy-benzothiazol-2-ylazo)phenyl]-methylphenyl amine]

total filament number, % of control at 0.2 µM [3]: 14.2 ± 0.6%
total filament number, % of control values [3]: 10-20%
charge at physiological pH [6]: uncharged
initial first order rate of decrease of total filament length per field ([7]; 200 nM compound added to filaments polymerized 3.5 h): 0.042 min⁻¹
total filament length, % of vehicle only controls [7, 10]: 21±6%
total filament number, % of vehicle only controls [7, 10]: 84±26%
IC50 as % of the molar concentration of arachidonic acid [1]: < 0.1%
IC50 [1, 9]: < 100 nM and ~60 nM
IC50 ([1]; arachidonic acid-induced, 3.5 h, room temperature, % of DMSO vehicle control fluorescence, read-out: IC50, inhibition of htau40 polymerization (thioflavin S fluorescence)): 54 ± 6 nM
IC50 [8]: 91 ± 13 nM
Compound: COc1ccc2nc(/N=N/c3ccc(N(C)C)cc3)sc2c1 [compound I′, 2-[[4-(dimethylamino)phenyl]azo]-6-methoxylbenzothiazole]
total filament length, % of DMSO vehicle control [4]: 14±9% and 10-50%
effect on Aβ1-40 polymerization / assembly kinetics [5]: did not inhibit Aβ polymerization; also recorded: does not interfere with Aβ1-40 assembly; also recorded: did not alter Aβ1-40 assembly kinetics significantly

Compound: thioflavin S [reference compound]
effect on tau polymerization at the concentration required for filament binding ([1]; concentration about EC50 of binding): not sufficient to inhibit or reverse tau polymerization

From patent publication US6479528B1, “Methods for inhibiting or reversing tau filament formation polymerization” (Neuronautics, Inc., priority 2001, dated 2002)
